According to patent US11297835B2, “Aqueous compositions of perillic acid compounds” (B.R.A.I.N. BIOTECHNOLOGY RESEARCH AND INFORMATION NETWORK AG, priority 2016, dated 2022):
Values belong to the compound of their own block, whether it stands above or below them.

Tests used:
[1] = tested on: Pseudomonas aeruginosa ATCC®9027; assay: Conservation efficacy testing in cosmetic oil-water-emulsion; assay type: cell-based; conditions: O/W emulsion pH 5-6, room temperature
Experimental: (§1) The conservation efficacy of sodium perillate in a final product was determined using two different formulations: • a) an oil-water-emulsion pH 5.5 (example for a cosmetic product), • b) a water-based glucose solution at pH 3.5 (example for a non-carbonated soft drink).
(§2) Hereby, a defined inoculum of the test strains was added directly to the formulations. In order to examine product preservation by sodium perillate or perillic acid, the formulations were incubated at room temperature for 4 to 16 weeks, respectively. Samples were taken every 7 days and […] (cfu) were counted on agar plates.
(§3) Among others the following strains were used to determine the efficacy of sodium peril-late in an oil-water emulsion: Escherichia coli ATCC®8739, Pseudomonas aeruginosa ATCC®9027, Stapyhlococcus aureus ATCC®6538, Candida albicans ATCC®10231, and Aspergillus brasiliensis ATCC®16404.
(§4) Table 2 Conservation efficacy testing of a typical cosmetic oil-water-emulsion at pH 5-6 supplemented with sodium perillate using five classical microbial test strains. All formulations were inoculated with a defined cell concentration and incubated over a time of 28 days at room temperature under standardized conditions. After 7, 14, 21 and 28 days samples were taken and the colony forming units (cfu) were calculated.

[2] = tested on: Aspergillus brasiliensis ATCC®16404; assay: as above; assay type: cell-based; conditions: O/W emulsion pH 5-6, room temperature
Experimental: as §1, §2, §3, §4

[3] = tested on: Escherichia coli ATCC®8739; assay: as above; assay type: cell-based; conditions: O/W emulsion pH 5-6, room temperature
Experimental: as §1, §2, §3, §4

[4] = tested on: Candida albicans ATCC®10231; assay: as above; assay type: cell-based; conditions: O/W emulsion pH 5-6, room temperature
Experimental: as §1, §2, §3, §4

[5] = tested on: Staphylococcus aureus ATCC®6538; assay: as above; assay type: cell-based; conditions: O/W emulsion pH 5-6, room temperature
Experimental: as §1, §2, §3, §4

[6] = Solubility in water-based systems; assay type: physicochemical; conditions: neutral pH; compared to the free perillic acid
Saccharomyces sp. = assay: Conservation efficacy testing in aqueous formulation (juice matrix); assay type: cell-based; conditions: aqueous formulation (juice matrix) pH 2.5-4, room temperature
Experimental: as §1, §2
(§5) Among others the following species were used to determine the efficacy of sodium perillate in a water-based glucose formulation: Saccharomyces sp., Schizosaccharomyces sp., Asaia sp., Lactobacillus sp., and Aspergillus sp.
(§6) Table 3 Illustration of cell reduction using sodium perillate in a typical aqueous formulation (juice matrix) for beverages pH 2.5-4 supplemented with sodium perillate. Conservation efficacy testing was performed using five microbial test strains: Saccharomyces sp., Schizosaccharomyces sp., Asaia sp., Lactobacillus sp., and Aspergillus sp. All formulations were inoculated with a defined cell concentration and incubated at room temperature under standardized conditions. After 7, 14, 21 and 28 days samples were taken and the colony forming units (cfu) were calculated and shown here.

Lactobacillus sp. = assay: as above; assay type: cell-based; conditions: aqueous formulation (juice matrix) pH 2.5-4, room temperature
Experimental: as §1, §2, §5, §6

Schizosaccharomyces sp. = assay: as above; assay type: cell-based; conditions: aqueous formulation (juice matrix) pH 2.5-4, room temperature
Experimental: as §1, §2, §5, §6

Asaia sp. = assay: as above; assay type: cell-based; conditions: aqueous formulation (juice matrix) pH 2.5-4, room temperature
Experimental: as §1, §2, §5, §6

Aspergillus sp. = assay: as above; assay type: cell-based; conditions: aqueous formulation (juice matrix) pH 2.5-4, room temperature
Experimental: as §1, §2, §5, §6

[7] = Stability investigation of sodium perillate on storage (TLC, GC, HPLC recovery); assay type: physicochemical; conditions: stored 12 months at 4° C., 22-25° C. and 50° C., gas and liquid chromatography
Experimental: Sodium perillate was prepared by adding a defined volume of a 0.1 M sodium hydroxide (NaOH) solution to perillic acid to give an aqueous solution of pH 7.0. The water was removed by evaporation resulting in a colorless solid. In order to investigate the stability of sodium perillate, the compound was stored for 12 months at 4° C., 22-25° C. (resemble room temperature) and 50° C. At certain time intervals all samples were examined and evaluated qualitatively using thin layer chromatography and quantitatively using gas and liquid chromatography. The results were compared to the stability of R perillic acid. […] These experiments highlight the long-term stability of sodium perillate.
Table 5 Recovery of sodium perillate measured by liquid chromatography (HPLC). Column: Phenomenex Luna 018. Method: 70% acetonitrile and 30% water, isocratic. Recovery values were calculated according to a calibration curve performed with sodium perillate in the range of 0.05-2 mM in acetonitrile. Detection was carried out by UV-light (DAD-detector) at 217 and 240 nm.

[8] = tested on: Pseudomonas aeruginosa ATCC®9027; assay: MIC, microdilution method adapted from DIN EN ISO 20776-1:2006; assay type: cell-based; conditions: no growth after 24 h and 72 h
Experimental: (§7) The antimicrobial activity of sodium perillate was examined in vitro using the microdilution method adapted from DIN EN ISO 20776-1:2006. R-Perillic acid and S-perillic acid were used as reference compounds. All experiments were done in 96-well plates in a final volume of 200 μL. Stock solutions of the investigated compounds were prepared in 25 mM buffer. The procedure was conducted as following: 4 μL of the particular stock solution were mixed with 196 μL culture medium containing a defined inoculum of the respective target strain. Sterile controls (not inoculated) and growth controls (buffer in-stead of compound added) were performed. All compound concentrations were tested in triplicate. The following strains were examined: Escherichia coli ATCC®8739, Pseudomonas aeruginosa ATCC®9027, Stapyhlococcus aureus ATCC®6538, Candida albicans ATCC®10231 and Aspergillus brasiliensis ATCC®16404. The following culture media were used: Mueller-Hinton II Bouillon (Escherichia coli, Pseudomonas aeruginosa and Staphylococcus aureus), yeast peptone dextrose (Candida albicans) and potato dextrose (Aspergillus brasiliensis). All culture media were buffered with 25 mM MES-buffer. For compound testing the plates were incubated at 37° C. (Escherichia coli, Pseudomonas aeruginosa and Staphylococcus aureus), at 28° C. (Candida albicans) and at 25° C. (Aspergillus brasiliensis). Plates were evaluated after 24 h and 72 h, respectively. The minimal inhibitory concentration is defined as the concentration where no microbial growth was observed after 24 h and 72 h incubation at the specified temperature.
(§8) Table 1 Determination of the minimal inhibition concentration (MIC, % w/v) of sodium perillate against five classical spoiling organisms under acidic (pH<6.5) and alkaline (pH>7.5) conditions using the microdilution method adapted according to DIN EN ISO 20776-1:2006. The experiments were performed in micro-well plates in a final volume of 200 μL. MIC-values are given according to the following letter code. A>1% w/v, B=0.5-1% w/v, C=0.1-0.5% w/v. D<0.1% w/v.

[9] = tested on: Aspergillus brasiliensis ATCC®16404; assay: as above; assay type: cell-based; conditions: pH <6.5; no growth after 24 h and 72 h
Experimental: as §7, §8

[10] = tested on: Escherichia coli ATCC®8739; assay: as above; assay type: cell-based; conditions: no growth after 24 h and 72 h
Experimental: as §7, §8

[11] = tested on: Candida albicans ATCC®10231; assay: as above; assay type: cell-based; conditions: no growth after 24 h and 72 h
Experimental: as §7, §8

[12] = tested on: Staphylococcus aureus ATCC®6538; assay: as above; assay type: cell-based; conditions: no growth after 24 h and 72 h
Experimental: as §7, §8

Solubility in water-based systems [6]: higher solubility
Degradation products detected [7]: no degradation products
MIC ([8]; pH <6.5): B (B=0.5-1% w/v)
MIC ([8]; pH >7.5): A (A>1% w/v)
MIC [9]: D (D<0.1% w/v)
MIC ([10]; pH <6.5): C (C=0.1-0.5% w/v)
MIC ([10]; pH >7.5): B (B=0.5-1% w/v)
MIC ([11]; pH <6.5): D (D<0.1% w/v)
MIC ([11]; pH >7.5): C (C=0.1-0.5% w/v)
MIC ([12]; pH <6.5): D (D<0.1% w/v)
MIC ([12]; pH >7.5): B (B=0.5-1% w/v)
Compound: C=C(C)C1CC=C(C(=O)[O-])CC1.[Na+] (centres unmarked) [Sodium perillate, sodium perillate]
Reduced log-steps After T28 ([1]; after 28 days): 3 log-steps
CFU/mL at Sampling Timepoint T0 ([1]; day 0): 580,000 CFU/mL
CFU/mL at Sampling Timepoint T7 ([1]; day 7): 45,000 CFU/mL
CFU/mL at Sampling Timepoint T14 ([1]; day 14): 11,500 CFU/mL
CFU/mL at Sampling Timepoint T21 ([1]; day 21): 805 CFU/mL
CFU/mL at Sampling Timepoint T28 ([1]; day 28): 235 CFU/mL
Reduced log-steps After T28 ([2]; after 28 days): 2 log-steps
CFU/mL at Sampling Timepoint T0 ([2]; day 0): 11,000 CFU/mL
CFU/mL at Sampling Timepoint T7 ([2]; day 7): 13,000 CFU/mL
CFU/mL at Sampling Timepoint T14 ([2]; day 14): 2,270 CFU/mL
CFU/mL at Sampling Timepoint T21 ([2]; day 21): 2,900 CFU/mL
CFU/mL at Sampling Timepoint T28 ([2]; day 28): 170 CFU/mL
Reduced log-steps After T28 ([3]; after 28 days): 3 log-steps
CFU/mL at Sampling Timepoint T0 ([3]; day 0): 1,680,000 CFU/mL
CFU/mL at Sampling Timepoint T7 ([3]; day 7): 53,500 CFU/mL
CFU/mL at Sampling Timepoint T14 ([3]; day 14): 190 CFU/mL
CFU/mL at Sampling Timepoint T21 ([3]; day 21): 370 CFU/mL
CFU/mL at Sampling Timepoint T28 ([3]; day 28): 1,430 CFU/mL
Reduced log-steps After T28 ([4]; after 28 days): 2 log-steps
CFU/mL at Sampling Timepoint T0 ([4]; day 0): 68,000 CFU/mL
CFU/mL at Sampling Timepoint T7 ([4]; day 7): 8,260 CFU/mL
CFU/mL at Sampling Timepoint T14 ([4]; day 14): 1,925 CFU/mL
CFU/mL at Sampling Timepoint T21 ([4]; day 21): 4,100 CFU/mL
CFU/mL at Sampling Timepoint T28 ([4]; day 28): 630 CFU/mL
Reduced log-steps After T28 ([5]; after 28 days): 6 log-steps
CFU/mL at Sampling Timepoint T0 ([5]; day 0): 130,000 CFU/mL
CFU/mL at Sampling Timepoint T7 ([5]; day 7): 0 CFU/mL
CFU/mL at Sampling Timepoint T14 ([5]; day 14): 0 CFU/mL
CFU/mL at Sampling Timepoint T21 ([5]; day 21): 0 CFU/mL
CFU/mL at Sampling Timepoint T28 ([5]; day 28): 0 CFU/mL
CFU/mL at Sampling Timepoint T0 (Saccharomyces sp.; day 0): 10 CFU/mL
CFU/mL at Sampling Timepoint T7 (Saccharomyces sp.; day 7): 23,900 CFU/mL
CFU/mL at Sampling Timepoint T14 (Saccharomyces sp.; day 14): 52,900 CFU/mL
CFU/mL at Sampling Timepoint T21 (Saccharomyces sp.; day 21): 530,000 CFU/mL
CFU/mL at Sampling Timepoint T28 (Saccharomyces sp.; day 28): 470,000 CFU/mL
CFU/mL at Sampling Timepoint T0 (Lactobacillus sp.; day 0): 10 CFU/mL
CFU/mL at Sampling Timepoint T7 (Lactobacillus sp.; day 7): 10 CFU/mL
CFU/mL at Sampling Timepoint T14 (Lactobacillus sp.; day 14): 56 CFU/mL
CFU/mL at Sampling Timepoint T21 (Lactobacillus sp.; day 21): 340 CFU/mL
CFU/mL at Sampling Timepoint T28 (Lactobacillus sp.; day 28): 910 CFU/mL
CFU/mL at Sampling Timepoint T0 (Schizosaccharomyces sp.; day 0): 55 CFU/mL
CFU/mL at Sampling Timepoint T7 (Schizosaccharomyces sp.; day 7): 350 CFU/mL
CFU/mL at Sampling Timepoint T14 (Schizosaccharomyces sp.; day 14): 3,265 CFU/mL
CFU/mL at Sampling Timepoint T21 (Schizosaccharomyces sp.; day 21): 4,990 CFU/mL
CFU/mL at Sampling Timepoint T0 (Asaia sp.; day 0): 45 CFU/mL
CFU/mL at Sampling Timepoint T7 (Asaia sp.; day 7): 17,250 CFU/mL
CFU/mL at Sampling Timepoint T14 (Asaia sp.; day 14): 8,940 CFU/mL
CFU/mL at Sampling Timepoint T21 (Asaia sp.; day 21): 725 CFU/mL
CFU/mL at Sampling Timepoint T28 (Asaia sp.; day 28): 685 CFU/mL
CFU/mL at Sampling Timepoint T0 (Aspergillus sp.; day 0): 10 CFU/mL
CFU/mL at Sampling Timepoint T7 (Aspergillus sp.; day 7): 0 CFU/mL
CFU/mL at Sampling Timepoint T14 (Aspergillus sp.; day 14): 0 CFU/mL
CFU/mL at Sampling Timepoint T21 (Aspergillus sp.; day 21): 0 CFU/mL
CFU/mL at Sampling Timepoint T28 (Aspergillus sp.; day 28): 0 CFU/mL

MIC ([8]; pH <6.5): B (B=0.5-1% w/v)
MIC ([8]; pH >7.5): A (A>1% w/v)
MIC [9]: D (D<0.1% w/v)
MIC ([10]; pH <6.5): C (C=0.1-0.5% w/v)
MIC ([10]; pH >7.5): B (B=0.5-1% w/v)
MIC ([11]; pH <6.5): D (D<0.1% w/v)
MIC ([11]; pH >7.5): C (C=0.1-0.5% w/v)
MIC ([12]; pH <6.5): D (D<0.1% w/v)
MIC ([12]; pH >7.5): B (B=0.5-1% w/v)
Compound: C=C(C)[C@@H]1CC=C(C(=O)O)CC1 [S-Perillic Acid, S-perillic acid]
